Source: patent US6342508B1, “N-hydroxy-2-(Alkyl,Aryl or Heteroaryl sulfanyl, sulfinyl or sulfonyl) 3-substituted alkyl, aryl or heteroarylamides as matrix metalloproteinase inhibitors” (American Cyanamid Company, priority 1997, dated 2002)
Where two headings read alike, the source gives them in different places.

Assays:
MMP 13 = MMP 13 (Homo sapiens, UniProt P45452); assay: MMP 13 inhibition (HTS); assay type: biochemical
TACE = target: T1, TACE (Homo sapiens, UniProt P78536); assay: Procedure for Measuring TACE Inhibition (fluorescent peptidyl substrate); assay type: biochemical
T1 construct: purchased Immunex
T1 sequence (P78536 215-824): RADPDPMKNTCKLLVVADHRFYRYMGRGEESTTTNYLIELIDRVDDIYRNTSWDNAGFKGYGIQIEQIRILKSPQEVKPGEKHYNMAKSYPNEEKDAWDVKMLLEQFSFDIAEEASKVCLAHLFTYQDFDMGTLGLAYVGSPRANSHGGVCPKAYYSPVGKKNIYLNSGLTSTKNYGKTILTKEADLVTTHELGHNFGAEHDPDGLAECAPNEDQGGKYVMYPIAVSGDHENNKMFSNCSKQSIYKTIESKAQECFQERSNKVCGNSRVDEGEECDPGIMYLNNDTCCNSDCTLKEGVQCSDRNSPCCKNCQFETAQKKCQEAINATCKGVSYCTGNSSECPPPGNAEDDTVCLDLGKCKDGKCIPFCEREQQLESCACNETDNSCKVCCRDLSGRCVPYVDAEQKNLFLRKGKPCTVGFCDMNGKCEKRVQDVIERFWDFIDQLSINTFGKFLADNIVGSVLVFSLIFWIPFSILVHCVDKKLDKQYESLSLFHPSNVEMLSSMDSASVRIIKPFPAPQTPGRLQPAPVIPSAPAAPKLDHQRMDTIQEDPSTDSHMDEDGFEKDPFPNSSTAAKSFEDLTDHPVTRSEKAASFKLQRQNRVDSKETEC
Description: Using 96-well black microtiter plates, each well recieves a solution composed of 10 μL TACE (Immunex, final concentration 1 μg/mL), 70 μL Tris buffer, pH 7.4 containing 10% glycerol (final concentration 10 mM), and 10 μL of test compound solution in DMSO (final concentration, DMSO concentration <1%) and incubated for 10 minutes at room temperature. The reaction is initiated by addition of a fluorescent peptidyl substrate (final concentration 100 μM) to each well and then shaking on a shaker for 5 sec. The reaction is read (excitation 340 nm, emission 420 nm) for 10 min. and the increase in fluorescence over time is plotted as a linear line. The slope of the line is calculated and represents the reaction rate. […] The mean (x±sem) of the control rate is calculated and compared for statistical significance (p<0.05) with drug-treated rates using Dunnett's multiple comparison test.

Question: Which “MMP 13 % inhibition at 36 nM (HTS)” value (MMP 13) does the source give for `CCCCCCC(C(=O)NO)[S+]([O-])c1nc2ccccc2[nH]1` (centres unmarked) [Example 177, 2-(2-Benzimidazol-2-ylsulfinyl)-octanoic acid hydroxyamide] here?
Answer: Its value is 5%.

Question: Which “MMP 13 % inhibition at 0.2 μM (HTS)” value (MMP 13) does the source give for `CCCCCCCCC(C(=O)NO)[S+]([O-])c1ccc([S+](C)[O-])cc1` (centres unmarked) [Example 144, 2-(4-methanesulfinyl-benzenesulfinyl)decanoic acid hydroxamide] here?
Answer: Its value is 38%.

Question: With `CSc1ccc(SC(COCc2ccccc2)C(=O)NO)cc1` (centres unmarked) [Example 146, 3-benzyloxy-N-hydroxy-2-(4-methanesulfanyl-benzenesulfanyl)-propionamide] as the compound, how does the “MMP 13 % inhibition at 0.2 μM (HTS)” value (MMP 13) read?
Answer: The value was 68%.

Question: For `CCCCCCC(C(=O)NO)S(=O)(=O)c1[nH]c2ccccc2[n+]1[O-]` (centres unmarked) [Example 181, 2-(3-Oxy-1H-benzimidazole-2-sulfonyl)-octanoic acid hydroxyamide], which “MMP 13 % inhibition at 36 nM (HTS)” value (MMP 13) is on record?
Answer: The value was 6%.

Question: Which “MMP 13 % inhibition at 0.2 μM (HTS)” value (MMP 13) does the source give for `N=C(N)NCCCC(C(=O)NO)S(=O)(=O)c1ccccc1Br` (centres unmarked) [Example 159, 2-(2-Bromosulfonyl)-5-guanidino-pentanoic acid hydroxyamide] here?
Answer: Its value is 49%.

Question: Which IC50 (TACE; read-out: TACE IC 50) does the source give for `COc1ccc(S(=O)(=O)C2(C(=O)NO)CCN(C(C)(C)C)CC2)cc1` [Example 92, 1-Tert-butyl-4-(4-methoxy-benzenesulfonyl)-piperidine-4-carboxylic acid hydroxyamide] here?
Answer: The IC50 was 9.7 nM.

Question: What about the melting point of the same compound?
Answer: Its melting point is 40 °C.

Question: What does the source list for `CCCCCCC(Sc1nccn1C)C(=O)NO` (centres unmarked) [Example 39, 2-(1-methyl-1H-imidazol-2-ylsulfanyl)-octanoic acid hydroxyamide]?
Answer: IC50 (TACE; read-out: TACE IC 50): 69.4 nM; melting point: 125 °C

Question: Which “TACE % inhibition at 1 mM” value (TACE) does the source give for `CCCCCCC(Sc1ccc(OCCN2CCNCC2)cc1)C(=O)NO` (centres unmarked) [Example 201, 2-[4-(2-Piperazine-1-yl-ethoxy)-benzenesulfanyl]-octanoic acid hydroxyamide] here?
Answer: Its value is 50.9%.

Question: For “(1-Hydroxycarbamoyl-propane-1-sulfonyl)-acetic acid hydroxyamide [Example 120]”, which “TACE % inhibition at 1 mM” value (TACE) is on record?
Answer: The value was 19.9%.

Question: Which IC50 (TACE; read-out: TACE IC 50) does the source give for `CC(C)=CCC(CC=C(C)C)(C(=O)NO)S(=O)(=O)c1ccc(C)cc1` [Example 42, 5-Methyl-2-(3-methyl-but-2-enyl)-2-(toluene-4-sulfonyl)-hex-4-enoic acid hydroxyamide] here?
Answer: The IC50 was 36.5 nM.

Question: What about the melting point of the same compound?
Answer: Its melting point is 108 to 110 °C.

Question: Which “TACE % inhibition at 1 mM” value (TACE) does the source give for `CCCCCCC(Sc1ccc(OCCCC)cc1)C(=O)NO` (centres unmarked) [Example 200, 2-(4-Butoxy-benzenesulfanyl)-octanoic acid hydroxyamide] here?
Answer: The value was 37.9%.

Question: For `COc1ccc(S(=O)(=O)C(CC=C(C)C)(Cc2ccc(OCCN3CCOCC3)cc2)C(=O)NO)cc1` (centres unmarked) [Example 24, 2-(4-Methoxy-benzenesulfonyl)-5-methyl-2-[4-(2-morpholin-4-yl-ethoxy)-benzyl]-hex-4-enoic acid hydroxyamide], which IC50 (TACE; read-out: TACE IC 50) is on record?
Answer: Its IC50 is 47.5 nM.

Question: For `CCCCCCC(C(=O)NO)S(=O)(=O)c1ccc(OS(=O)(=O)c2ccccc2[N+](=O)[O-])cc1` (centres unmarked) [Example 238, 2-Nitro-benzenesulfonic acid 4-(1-hydroxycarbamoyl-heptylsulfonyl)-hydroxyamide], which IC50 (TACE; solid phase compounds table) is on record?
Answer: The IC50 was 930 nM.

Question: With `COc1ccc(S(=O)(=O)C2(C(=O)NO)CCN(Cc3ccc(Br)cc3)CC2)cc1` [Example 90, 1-(4Bromo-benzyl)-4-(4-methoxy-benzenesulfonyl)-piperidine-4-carboxylic acid hydroxyamide] as the compound, how does the IC50 (TACE; read-out: TACE IC 50) read?
Answer: The IC50 was 71.9 nM.

Question: And the melting point?
Answer: The melting point was 180 °C.

Question: For “3-(1-Hydroxycarbamoyl-heptylsulfinyl)-benzoicacid hydroxyamide [Example 188]”, which “TACE % inhibition at 1 mM” value (TACE) is on record?
Answer: Its value is 16.2%.

Question: Which results are given for `COc1ccc(S(=O)(=O)C2(C(=O)NO)CCN(C(C)C)CC2)cc1` [Example 96, 1-Isopropyl-4-(4-methoxy-benzenesulfonyl)-piperidine-4-carboxylic acid hydroxyamide]?
Answer: IC50 (TACE; read-out: TACE IC 50): 18.1 nM; melting point: 75 °C

Question: For `COc1ccc(S(=O)(=O)C2(C(=O)NO)CCN(C3CCCCCCC3)CC2)cc1` [Example 94, 1-Cyclooctyl-4-(4-methoxy-benzenesulfonyl)-piperidine-4-carboxylic acid hydroxyamide], which IC50 (TACE; read-out: TACE IC 50) is on record?
Answer: The IC50 was 22.9 nM.

Question: And the melting point?
Answer: Its melting point is greater than 200 °C.
